Test results reported in patent publication US20080292576A1, “METHOD FOR IDENTIFYING HAIR CONDITIONER-RESISTANT HAIR-BINDING PEPTIDES AND HAIR BENEFIT AGENTS THEREFROM” (E.I. du Pont de Nemours and Co., priority 2005, published 2008).
Where no end group is shown, it is not given here. 5‑FAM = 5-carboxyfluorescein-aminohexyl amidite fluorescent tag

Tests used:
[1] = ELISA determination of specificity, binding to hair; design: species or system human; settings: for Hair A450 ± SEM: ELISA, 20 μM fluorescein-labeled peptide in binding buffer, 30 min at 37° C., absorbance at 450 nm; for binding to hair (in words): ELISA of Table 2
Excerpt: (§1) The hair-binding peptides HCP.1 (SEQ ID NO:1) and HCP.6 (SEQ ID NO:4) were used in this Example along with a control peptide, an unrelated skin-binding peptide, Skin 1 (Huang et al., U.S. Patent Application Publication No. 2005/0050656), given as SEQ ID NO:8. All of the peptides were synthesized with an added lysine residue, derivatized with the fluorescent tag 5-carboxyfluorescein-aminohexyl amidite (5-FAM), at the C-terminus by SynPep (Dublin, Calif.). The sequences of the derivatized hair binding peptides HCP.1(5-FAM) and HCP.6(5-FAM) are given as SEQ ID NOs:9 and 10, respectively. The sequence of the derivatized skin-binding peptide control Skin 1(5-FAM) is given as SEQ ID NO:11.
(§2) For the assay, a unique hair or pig skin-bottom 96-well apparatus was created by applying one layer of Parafilm® under the top 96-well block of a Minifold I Dot-Blot System (Schleicher & Schuell, Inc., Keene, N.H.), adding hair or a layer of hairless pig skin on top of the Parafilm® cover, and then tightening the apparatus. The hair or skin sample in the 96-well apparatus was first blocked with SuperBlock® Blocking Buffer (Tris-buffered; Pierce Biotechnology, Rockford, Ill.) by incubating the sample for 1 h at room temperature. Then, the hair or skin sample was washed six times with wash buffer (TBST-0.5%). The fluorescein-labeled peptide, at a concentration of 20 μM in 1.0 mL of binding buffer (TBST-0.5% containing 1 mg/mL BSA), was added to each well and incubated for 30 min at 37° C. The hair or skin sample was washed six times with TBST-0.5%, and then, 1.0 mL of anti-fluorescein/Mouse IgG (Molecular Probes, Inc., Eugene, Oreg.) solution (1:1000 dilution in blocking buffer) was added per well. The samples were incubated for 1 h at room temperature and then washed six times with wash buffer. Then, 1.0 mL of Anti-Mouse IgG-HRP conjugate (Pierce Biotechnology) solution (1:1000 dilution in blocking buffer) was added to each well and the samples were incubated for 1 h at room temperature. The samples were washed six times with wash buffer, and 300 μL of TMB Substrate (Pierce Biotechnology) was added to each well. The samples were incubated for 10 min at room temperature and then a 100 μL sample from each well was taken and added to a well in a new microtiter plate. Then, 100 μL of Stop solution (2 M sulfuric acid solution) was added to each well and the absorbance of each sample was measured at a wavelength of 450 nm.

[2] = ELISA binding to hair bundles from a hair conditioner matrix or buffer; design: species or system human; settings: for Buffer A450 ± SEM / 100% Conditioner A450 ± SEM: hair bundles, 30 min at 37° C.; for Buffer A450 ± SEM: 20 μM peptide in buffer; for 100% Conditioner A450 ± SEM: 20 μM peptide in undiluted Dove Extra Volume Conditioner; for difference in hair-binding activity from a hair conditioner matrix compared to buffer: ELISA of Table 3
Procedure: The same ELISA method described in Example 4 was used, except that the hair samples were assembled into bundles, instead of being cast as wells in a 96-well apparatus. To prepare the hair sample bundles, 100 pieces of 1 cm-long hairs were assembled together and taped at one end with narrow tape (3 M, St. Paul, Minn.). The hair was prepared as described in Examples 1-3 and placed into a flat-bottom block (Qiagen Science, Germantown, Md.; Cat. No. 19579).
The HCP.1(5-FAM) and HCP.6(5-FAM) hair-binding peptides, as described in Example 4, were mixed separately with undiluted hair conditioner (Dove® Extra Volume Conditioner; Unilever) using a high-shear mixer (Silverson, Model L4R7A; Silverson Machines, East Longmeadow, Mass.) for 6 min to give a final peptide concentration of 20 μM. The hair samples were blocked as described in Example 4 and then incubated in the peptide-conditioner mixtures for 30 min at 37° C. The hair samples were then washed and treated as described in Example 4. After the final wash step after the addition of the Anti-Mouse IgG-HRP conjugate, the hair bundles were transferred to new tubes and the TMB substrate was added. The hair bundles were incubated for 10 min at room temperature, and then a 100 μL sample from each tube was taken and added to a well in a microtiter plate. Then, 100 μL of Stop solution (2 M sulfuric acid solution) was added to each well and the absorbance of each sample was measured at a wavelength of 450 nm.
The binding of the HCP.1(5-FAM) and HCP.6(5-FAM) hair-binding peptides to hair from buffer was determined using the same procedure. In addition, controls were run using the same procedure, without any hair-binding peptide present, in both hair conditioner and buffer.

[3] = ELISA determination of specificity, binding to pig skin; settings: for Skin A450 ± SEM: ELISA, 20 μM fluorescein-labeled peptide in binding buffer, 30 min at 37° C., pig skin, absorbance at 450 nm; for binding to skin (in words): ELISA of Table 2, pig skin
Excerpt: as §1, §2

[4] = Stability of hair-binding activity in a hair conditioner matrix (ELISA over time); design: species or system human; settings: 21 days in hair conditioner matrix, room temperature; FIGS. 1 and 2
Procedure: Separate mixtures of the hair-binding peptides HCP.1 and HCP.6 in hair conditioner were prepared as described in Example 5. For purposes of comparison, solutions of the hair-binding peptides in buffer were used. All the solutions were stored at room temperature and the binding activity of the peptides was determined using the ELISA procedure described in Example 5 using samples taken at different periods of time.

[5] = Shampoo resistance of hair binding (ELISA after 30% shampoo wash); design: species or system human; settings: wash with 30% shampoo (Pantene Pro-V, Sheer Volume)
Procedure: Experiments were also done to determine if the hair conditioner-resistant hair-binding peptides were also shampoo resistant. For these experiments, the hair, after contacting with the hair-binding peptide (HCP.1 or HCP.6), was washed with a solution containing 30% shampoo (Pantene Pro-V, Sheer Volume, Proctor & Gamble, Cincinnati, Ohio) and the binding activity was determined using the ELISA method described above and compared to that obtained with buffer washes.

Substance | Hair A450 ± SEM [1] | Buffer A450 ± SEM [2] | 100% Conditioner A450 ± SEM [2] | Skin A450 ± SEM [3] | binding to hair (in words) [1] | difference in hair-binding activity from a hair conditioner matrix compared to buffer [2] | binding activity after shampoo wash compared to buffer washes [5] | binding to skin (in words) [3] | hair-binding activity after storage in the hair conditioner matrix [4]
HCP.1(5-FAM): HCP.1 with an added C-terminal lysine derivatized with fluorescent tag 5-carboxyfluorescein-aminohexyl amidite (THSTHNHGSPRHTNADAGNPK(5‑FAM)) | 0.392 ± 0.065 | 1.593 ± 0.060 | 1.581 ± 0.046 | 0.090 ± 0.136 | – | – | – | – | –
HCP.6(5-FAM): HCP.6 with an added C-terminal lysine derivatized with fluorescent tag 5-carboxyfluorescein-aminohexyl amidite (STLHKYKSQDPTPHHK(5‑FAM)) | 0.581 ± 0.053 | 1.420 ± 0.062 | 1.217 ± 0.075 | −0.009 ± 0.023 | – | – | – | – | –
THSTHNHGSPRHTNADAGNP (Hair conditioner-resistant hair-binding peptide) [HCP.1] | – | – | – | – | bind to hair | no significant difference | almost total loss of binding activity | not to skin | no significant decrease

Second part, led by results:

Hair A450 ± SEM [1] | Buffer A450 ± SEM [2] | 100% Conditioner A450 ± SEM [2] | Skin A450 ± SEM [3] | binding to hair (in words) [1] | difference in hair-binding activity from a hair conditioner matrix compared to buffer [2] | binding activity after shampoo wash compared to buffer washes [5] | binding to skin (in words) [3] | Substance | hair-binding activity after storage in the hair conditioner matrix [4]
– | – | – | – | bind to hair | no significant difference | almost total loss of binding activity | not to skin | STLHKYKSQDPTPHH (Hair conditioner-resistant hair-binding peptide) [HCP.6] | no significant decrease
−0.001 ± 0.041 | – | – | 0.328 ± 0.146 | – | – | – | – | Skin 1(5-FAM): skin-binding control peptide Skin 1 with added C-terminal lysine derivatized with 5-FAM (TPFHSPENAPGSK(5‑FAM)) [reference compound] | –
– | – | – | – | low hair-binding activity | – | – | high skin-binding activity | Skin 1: control peptide, an unrelated skin-binding peptide (Huang et al., US 2005/0050656) (TPFHSPENAPGS; Skin-binding peptide) [reference compound] | –
